{
  "source": "patent US20240108634A1",
  "about": "“COMPOSITIONS AND METHODS FOR INHIBITING YAP” (The United States Government as represented by the …, priority 2021, published 2024)",
  "key": {"[1]": {"target": "T1, total YAP (Homo sapiens, UniProt P46937)", "T1 construct": "endogenous in cells; host or cells: LN229", "T1 sequence (P46937 whole entry)": "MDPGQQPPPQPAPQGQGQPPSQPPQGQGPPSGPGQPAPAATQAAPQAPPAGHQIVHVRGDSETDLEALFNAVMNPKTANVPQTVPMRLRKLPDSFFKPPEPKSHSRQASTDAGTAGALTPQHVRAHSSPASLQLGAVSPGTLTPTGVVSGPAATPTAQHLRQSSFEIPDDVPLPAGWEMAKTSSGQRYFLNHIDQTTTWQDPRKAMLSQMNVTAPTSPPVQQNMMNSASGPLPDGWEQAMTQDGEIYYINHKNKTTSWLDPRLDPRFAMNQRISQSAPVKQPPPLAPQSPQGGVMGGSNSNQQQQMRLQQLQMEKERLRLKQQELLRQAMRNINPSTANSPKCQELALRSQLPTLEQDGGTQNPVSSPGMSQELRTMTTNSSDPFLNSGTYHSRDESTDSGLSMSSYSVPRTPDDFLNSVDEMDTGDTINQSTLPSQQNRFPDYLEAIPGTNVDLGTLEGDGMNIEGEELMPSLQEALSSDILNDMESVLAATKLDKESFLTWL", "assay": "Total YAP ELISA in GBM cells", "type": "cell-based", "experimental": "Levels of total YAP were determined via ELISA. […] Immunoprecipitates were immunoblotted for the indicated proteins. […] Cells were treated with the indicated concentrations of inhibitor for 18 h and mRNA extracted for real time RT-PCR analyses. Measurements were performed in quadruplicate and means and+S.D. are shown. […] Cells were treated with (+) or without (−) NSC682769 (100 nM, 18 h) and harvested and separated into cytoplasmic and nuclear cellular fractions. Cytoplasmic versus nuclear material was subsequently immunoblotted for the indicated proteins. […] Values in top right corner of panels correspond to the percentage of nuclear localized YAP. Cells were grown on coverslips and treated with NSC682769. Cells were permeabilized and stained using primary antibody to YAP1 and FITC-conjugated secondary. Nuclei were stained with DAPI. Scale bar, 20 μm.\nSurface plasmon resonance (SPR), ELISA, YAP-TEAD reporter activity, cellular fractionation, and immunofluorescence analyses. SPR experiments were carried out on a Nicoya OpenSPR™ instrument using immobilized YAP on a carboxyl-coated sensor. Binding was observed as the change in response units (RU) as analyte was injected at a flow rate of 10 μl/min at 25° C. TraceDrawer™ was used for kinetic analyses. The PathScan® total-YAP ELISA kit was obtained from Cell Signaling and used according to the manufacturer's instructions. YAP-TEAD reporter activity was determined as previously described (Kim N G, Gumbiner B M (2015) J Cell Biol 210: 503-515). HOP-flash contains multiple copies of wild-type TEAD-binding sites with a minimal promoter upstream of a luciferase reporter gene. Luciferase activity was measured via a luciferase assay system (Promega). Nuclear-cytoplasmic fractionation was performed according to Dignam et al. (Dignam J D, et al. (1983) Nucleic Acids Res 11: 1475-1489). Briefly, the buffers used were kept on ice and centrifugations were done at 4° C. with soft braking. After a single wash with PBS, cells were scraped with PBS (containing 1 mM DTT and 1× protease inhibitor) and harvested by centrifugation at 1000×g for 15 min. The cell pellet was gently resuspended with five times the volume of pellet with buffer A (10 mM HEPES, pH 7.9, 1.5 mM MgCl2, 10 mM KCl, 0.5 mM DTT, and 1× protease inhibitor) and incubated on ice for 15 min, followed by homogenization (Wheaton). Cell lysis was monitored by trypan blue staining. The cell lysate was spun at 1000×g for 5 min to collect the pellet as the nuclear fraction and the supernatant as the cytoplasmic fraction. […]"}, "[2]": {"test_system": "GFAP-EGFRvIII×GFAP-Cre+/Rictor glioma GEMM", "assay": "Survival of GFAP-EGFRvIII; GFAP-Cre/Rictor transgenic glioma mice", "type": "in vivo", "experimental": "FIGS. 9A-B show GEMM survival and brain/blood plasma concentrations following treatment with NSC682769. […] C57/BL6 mice were administered NSC682769 IV and mean brain and plasma concentrations were determined via HPLC analyses. (n=5).\nAnimal studies. Xenografts of LN229 cells were performed in 4-6-week-old female C.B.-17-scid (Taconic) mice as previously described (Holmes B, et al. (2016) J Biol Chem 291: 14146-14159). Tumors were harvested at autopsy for immunoblot analysis. Sections of paraffin-embedded tumors on slides were processed for immunohistochemistry as previously described (Benavides-Serrato A, et al. (2017) PLoS One 12: e0176599). For GEMM studies, double transgenic GFAP-EGFRvIII; GFAP-Cre/Rictor^loxP/loxP mice as previously described were used (Bashir T, et al. (2012) PLoS One 7: e47741). Determinations of blood plasma and brain concentrations of NSC682769 following IV administration were performed in C57/BL6 mice.\nNSC682769 increases survival of a glioma GEMM and penetrates the blood-brain barrier. NSC682769 was evaluated in double transgenic GFAP-EGFRvIII; GFAP-Cre/Rictor^loxP/loxP mice which overexpress both the mutant constitutively active EGFRvIII allele and the mTORC2 scaffolding component Rictor. […] To assess therapeutic activity, the effect of twice-weekly 5 or 20 mg/kg NSC682769 treatments was measured on survival."}},
  "note": "Like-named read-outs stand apart in the source and are kept apart here.",
  "data": [
    {"smiles": "COc1ccc(-c2cc(-c3ccccc3)nc3c2CC(=O)Nc2ccccc2-3)cc1OC", "note": "[NSC682769]", "values": [
      {"measurement": "DC50", "setting": "[1]; GBM39 cells, read-out: IC50, inhibition of total YAP (ELISA)", "result": 5.1, "unit": "nM"},
      {"measurement": "DC50", "setting": "[1]; LN229 cells, read-out: IC50, inhibition of total YAP (ELISA)", "result": 11.8, "unit": "nM"},
      {"measurement": "DC50", "setting": "[1]; LN229 cells, read-out: IC50 for YAP (ELISA)", "result": 11.8, "unit": "nM"},
      {"measurement": "DC50", "setting": "[1]; patient-derived GBM39 cells, read-out: IC50 for YAP (ELISA)", "result": 5.1, "unit": "nM"},
      {"measurement": "Mice surviving to 20 weeks", "setting": "[2]; 5 mg/kg twice weekly", "result": 60, "unit": "%"},
      {"measurement": "Mice surviving at 20 weeks", "setting": "[2]; 20 mg/kg twice weekly", "result": "more than 75%"}
    ]}
  ]
}
